Source: patent US20130158075A1, “HETEROCYCLIC COMPOUNDS AS DGAT1 INHIBITORS” (PIRAMAL ENTERPRISES LIMITED, priority 2010, published 2013)

These compounds were tested against T1, hDGAT1 (Homo sapiens, UniProt O75907) (assay: In-vitro DGAT1 assay with hDGAT1 microsomes from Sf9 cells (14C oleoyl CoA, scintillation counting)). Settings: at 1 μM.
T1 construct: made in house; host or cells: Sf9 insect cells (baculovirus); microsomal fraction
T1 sequence (O75907 1-488): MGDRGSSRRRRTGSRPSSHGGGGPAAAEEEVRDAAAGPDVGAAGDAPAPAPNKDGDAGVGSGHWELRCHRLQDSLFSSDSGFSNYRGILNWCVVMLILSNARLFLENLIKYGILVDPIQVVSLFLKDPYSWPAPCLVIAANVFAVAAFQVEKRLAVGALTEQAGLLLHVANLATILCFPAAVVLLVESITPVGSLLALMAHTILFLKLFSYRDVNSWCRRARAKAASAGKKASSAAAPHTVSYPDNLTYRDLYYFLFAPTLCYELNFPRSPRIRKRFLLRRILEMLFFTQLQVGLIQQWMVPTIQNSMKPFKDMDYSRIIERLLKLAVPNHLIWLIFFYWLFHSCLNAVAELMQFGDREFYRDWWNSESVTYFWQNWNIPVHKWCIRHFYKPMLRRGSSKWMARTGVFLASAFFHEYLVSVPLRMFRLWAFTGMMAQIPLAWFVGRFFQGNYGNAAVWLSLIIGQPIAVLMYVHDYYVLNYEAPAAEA
Format: biochemical
Experimental: Sf9 cells were grown in T25 flasks containing Graces's Insect media with 10% FBS with antibiotic (100 units/mL penicillin, 100 μg/mL streptomycin sulphate, 0.25 μg/mL Amptotericin B as Fungizone) grown in a 27° C. incubator.
hDGAT10RF expression clone (RZPDo839C09146 in pDEST vector) was obtained from RZPD, German Science Center for Genomes research, Germany. hDGAT1 bacmid DNA was obtained by transformation of the hDGAT1 expression clone into DH10Bac E. coli competent cells. Approximately 1 μg of hDGAT1 bacmid DNA was infected into Sf9 cells with Cellfectin (Invitrogen) reagent. Following infection, Sf9 cells were incubated at 27° C. for 30 min. Five hours after infection, the media was replaced with growth media containing antibiotics (100 units/mL penicillin, 100 μg/mL streptomycin sulphate, 0.25 μg/mL Amptotericin B as Fungizone) and incubated at 27° C. for 72 h. The supernatant containing the virus was centrifuged at 1500×g for 5 min, passed through 0.22 μm filter, and subsequently stored at 4° C. The virus was further amplified three more times by re-infection of Sf9 cells and the viral titer was determined by plaque assay.
Sf9 cells were seeded in spinner flasks on day 0 at a cell density of 1×10^6 and infected on day 1 with hDGAT1 baculovirus at a multiplicity of infection (MOI) of 5 and a cell density of 2×10^6. On day 3 (or 66-72 h), cells were harvested and centrifuged at 2500×g for 10 min. Pellet was resuspended in lysis buffer (100 mM sucrose, 50 mM KCl, 40 mM KH2PO4, 30 mM EDTA, pH 7.2) and passed through 21-gauge needle approximately 10 times. The mixture was centrifuged at 12,000 rpm in a Sigma 12158-H rotor at 4° C. for 30 min. The supernatant was subjected to centrifugation at 35,000 rpm in a Beckman Ti-45 rotor at 4° C. for 1 h. The resultant pellet containing the microsomes wasere resuspended overnight in 1 mL of lysis buffer and total protein concentration was estimated using Bradford Reagent. Microsomes were aliquoted and stored at −80° C.
Frozen aliquots of hDGAT1 containing microsomes were thawed (5-10 mg/mL total protein) on ice and diluted to a working stock of 1 mg/mL with DGAT Assay Buffer (DAB). The DGAT reaction assay was performed by following the procedure described in U.S. Pat. No. 6,607,893 with some modifications that are described below.
1 mL stock solution of DGAT1 substrate mixture contains 5.6 μL of ^14C oleoyl CoA (16.8 nCi) and […] of 1,2-dioleoyl-sn-glycerol (1228.5 μM) 1,2-dioleoyl-sn-glycerol stock (19.5 mM) was prepared by dissolving 25 mg of 1,2-dioleoyl-sn-glycerol (Sigma, US) in 2060 μL of acetone.
The assay was performed in duplicates in a reaction volume of 100 μL.
The reaction was started by the addition of 2.5 μL of 1 mg/mL of microsomes (iv) to the mixture of (i), (ii) and (iii), and incubated at 37° C. for 10 min. The reaction was stopped by the addition of 300 μL of Alkaline Ethanol Stop Solution Mix [AESSM; 12.5% of 100% non-denatured ethanol, 10% deionized water, 2.5% 1N NaOH, 75% stop solution (78.4% isopropanol, 19.6% n-heptane, 2% deionized water)] followed by addition of 600 μL of n-heptane. The mixture was vortexed and the triglycerides formed were extracted into the organic heptane phase. 250 μL of the heptane phase was added into 4 mL scintillation cocktail (66.72% toluene, 33.3% TritonX-100, 0.5% PPO, 0.02% POPOP) and counted on a liquid scintillation counter for 1 min. Data was collected and plotted as a function of concentration in nM versus percentage inhibition of hDGAT1 by the compounds of present invention.

Question: `Cc1ccc(Cl)cc1NC(=O)Nc1ccc(-c2cnc(C3CCC(C(=O)O)CC3)s2)cc1` (stereo not shown) [Example 164] was tested. Which “Percentage inhibition of hDGAT1” value did it give?
Answer: ++ (>50 % Inhibition)

Same assay, conditions: read-out: Percentage inhibition of hDGAT1

Question: For `Cc1ccc(Cl)c(NC(=O)Nc2ccc(-c3cnc(C4CCC(C(=O)O)CC4)s3)cc2)c1` (stereo not shown) [Example 150, 4-(5-(4-(3-(2-Chloro-5-methylphenyl)ureido)phenyl)thiazol-2-yl)cyclohexane carboxylic acid], which inhibition at 1 µM is on record?
Answer: > 50%

Question: Which inhibition at 1 µM does the source give for `O=C(Nc1ccc(-c2cnc(C3CCC(C(=O)O)CC3)s2)cc1)Nc1cccc(Cl)c1F` (stereo not shown) [Example 152, 4-(5-(4-(3-(3-Chloro-2-fluorophenyl)ureido)phenyl)thiazol-2-yl)cyclohexane carboxylic acid] here?
Answer: > 50%

Question: `COc1ccc(NC(=O)Nc2ccc(-c3cnc(C4CCC(C(=O)O)CC4)s3)cc2)c(C)c1` (stereo not shown) [Example 154, 4-(5-(4-(3-(4-Methoxy-2-methylphenyl)ureido)phenyl)thiazol-2-yl)cyclo hexanecarboxylic acid] was tested. Which inhibition at 1 µM did it give?
Answer: > 50%

Question: For `O=C(Nc1ccc(-c2cnc(C3CCC(C(=O)O)CC3)s2)cc1)Nc1ccc2c(c1)OCO2` (stereo not shown) [Example 156, 4-(5-(4-(3-Benzo[d][1,3]-dioxol-5-ylureido)phenyl)thiazol-2-yl)cyclohexane carboxylic acid], which inhibition at 1 µM is on record?
Answer: > 50%

Question: How did the inhibition at 1 µM turn out when `O=C(Nc1ccc(-c2cnc(C3CCC(C(=O)O)CC3)s2)cc1)Nc1c(Cl)cccc1C(F)(F)F` (stereo not shown) [Example 158, 4-(5-(4-(3-(2-Chloro-6-(trifluoromethyl)phenyl)ureido)phenyl)thiazol-2-yl)cyclohexanecarboxylic acid] was run?
Answer: > 50%

Question: With `O=C(Nc1ccc(-c2cnc(C3CCC(C(=O)O)CC3)s2)cc1)Nc1ccc(Cl)cc1C(F)(F)F` (stereo not shown) [Example 160, 4-(5-(4-(3-(4-Chloro-2-(trifluoromethyl)phenyl)ureido)phenyl)thiazol-2-yl)cyclohexanecarboxylic acid] as the compound, how does the inhibition at 1 µM read?
Answer: > 50%

Question: `Cc1cccc(Cl)c1NC(=O)Nc1ccc(-c2cnc(C3CCC(C(=O)O)CC3)s2)cc1` (stereo not shown) [Example 162, 4-(5-(4-(3-(2-Chloro-6-methylphenyl)ureido)phenyl)thiazol-2-yl)cyclohexane carboxylic acid] was tested. Which inhibition at 1 µM did it give?
Answer: > 50%

Question: `O=C(Nc1ccc(-c2cnc(C3CCC(C(=O)O)CC3)s2)cc1)Nc1ccccc1C(F)(F)F` (stereo not shown) [Example 166, 4-(5-(4-(3-(2-(Trifluoromethyl)phenyl)ureido)phenyl)thiazol-2-yl)cyclohexane carboxylic acid] was tested. Which inhibition at 1 µM did it give?
Answer: > 50%

Question: Which inhibition at 1 µM does the source give for `O=C(Nc1ccc(-c2cnc(C3CCC(C(=O)O)CC3)s2)cc1)Nc1ccccc1OC(F)(F)F` (stereo not shown) [Example 168, 4-(5-(4-(3-(2-(Trifluoromethoxy)phenyl)ureido)phenyl)thiazol-2-yl)cyclo hexanecarboxylic acid] here?
Answer: > 50%

Question: How did the inhibition at 1 µM turn out when `O=C(Nc1ccc(Oc2ccccc2)cc1)Nc1ccc(-c2cnc(C3CCC(C(=O)O)CC3)s2)cc1` (stereo not shown) [Example 170, 4-(5-(4-(3-(4-Phenoxyphenyl)ureido)phenyl)thiazol-2-yl)cyclohexane carboxylic acid] was run?
Answer: > 50%

Question: For `O=C(Nc1ccc(-c2cnc(C3CCC(C(=O)O)CC3)s2)cc1)Nc1ccc(Cl)cc1F` (stereo not shown) [Example 172, 4-(5-(4-(3-(4-Chloro-2-fluorophenyl)ureido)phenyl)thiazol-2-yl)cyclohexane carboxylic acid], which inhibition at 1 µM is on record?
Answer: > 50%

Question: How did the inhibition at 1 µM turn out when `Cc1ccc(F)c(NC(=O)Nc2ccc(-c3cnc(C4CCC(C(=O)O)CC4)s3)cc2)c1` (stereo not shown) [Example 174, 4-(5-(4-(3-(2-Fluoro-5-methylphenyl)ureido)phenyl)thiazol-2-yl)cyclohexane carboxylic acid] was run?
Answer: > 50%

Question: Which inhibition at 1 µM does the source give for `O=C(Nc1ccc(-c2cnc(C3CCC(C(=O)O)CC3)s2)cc1)Nc1c(F)cccc1C(F)(F)F` (stereo not shown) [Example 176, 4-(5-(4-(3-(2-Fluoro-6-(trifluoromethyl)phenyl)ureido)phenyl)thiazol-2-yl)cyclohexanecarboxylic acid] here?
Answer: 20 to 50%

Question: For `O=C(Nc1ccc(-c2cnc(C3CCC(C(=O)O)CC3)s2)cc1)Nc1cccc(F)c1` (stereo not shown) [Example 178, 4-(5-(4-(3-(3-Fluorophenyl)ureido)phenyl)thiazol-2-yl)cyclohexanecarboxylic acid], which inhibition at 1 µM is on record?
Answer: > 50%

Question: `O=C(Nc1ccc(-c2cnc(C3CCC(C(=O)O)CC3)s2)cc1)Nc1ccc(F)c(F)c1` (stereo not shown) [Example 180, 4-(5-(4-(3-(3,4-Difluorophenyl)ureido)phenyl)thiazol-2-yl)cyclohexane carboxylic acid] was tested. Which inhibition at 1 µM did it give?
Answer: > 50%

Question: Which inhibition at 1 µM does the source give for `O=C(Nc1ccc(-c2cnc(C3CCC(C(=O)O)CC3)s2)cc1)Nc1cc(F)cc(F)c1` (stereo not shown) [Example 182, 4-(5-(4-(3-(3,5-Difluorophenyl)ureido)phenyl)thiazol-2-yl)cyclohexane carboxylic acid] here?
Answer: > 50%

Question: How did the inhibition at 1 µM turn out when `O=C(Nc1ccc(-c2cnc(C3CCC(C(=O)O)CC3)s2)cc1)Nc1c(F)cccc1F` (stereo not shown) [Example 184, 4-(5-(4-(3-(2,6-Difluorophenyl)ureido)phenyl)thiazol-2-yl)cyclohexane carboxylic acid] was run?
Answer: > 50%

Question: For `O=C(Nc1ccc(-c2cnc(C3CCC(C(=O)O)CC3)s2)cc1)Nc1ccc(F)c(F)c1F` (stereo not shown) [Example 186, 4-(5-(4-(3-(2,3,4-Trifluorophenyl)ureido)phenyl)thiazol-2-yl)cyclohexane carboxylic acid], which inhibition at 1 µM is on record?
Answer: > 50%

Question: With `O=C(Nc1ccc(-c2cnc(C3CCC(C(=O)O)CC3)s2)cc1)Nc1ccccc1Cl` (stereo not shown) [Example 188, 4-(5-(4-(3-(2-Chlorophenyl)ureido)phenyl)thiazol-2-yl)cyclohexane carboxylic acid] as the compound, how does the inhibition at 1 µM read?
Answer: > 50%

Question: Which inhibition at 1 µM does the source give for `O=C(Nc1ccc(-c2cnc(C3CCC(C(=O)O)CC3)s2)cc1)Nc1ccc(Cl)cc1Oc1ccccc1` (stereo not shown) [Example 190, 4-(5-(4-(3-(4-Chloro-2-phenoxyphenyl)ureido)phenyl)thiazol-2-yl)cyclohexane carboxylic acid] here?
Answer: > 50%

Question: For `O=C(Nc1ccccc1)Nc1ccc(-c2cnc(C3CCC(C(=O)O)CC3)s2)cc1` (stereo not shown) [Example 192, 4-(5-(4-(3-Phenylureido)phenyl)thiazol-2-yl)cyclohexanecarboxylic acid], which inhibition at 1 µM is on record?
Answer: > 50%

Question: With `CC(C)(C)c1ccc(C(=O)Nc2ccc(-c3cnc(C4CCC(C(=O)O)CC4)s3)cc2)cc1` (stereo not shown) [Example 194, 4-(5-(4-(4-t-Butylbenzamido)phenyl)thiazol-2-yl)cyclohexanecarboxylic acid] as the compound, how does the inhibition at 1 µM read?
Answer: > 50%

Question: With `O=C(Nc1ccc(-c2cnc(C3CCC(C(=O)O)CC3)s2)cc1)c1ccccc1Cl` (stereo not shown) [Example 196, 4-(5-(4-(2-Chlorobenzamido)phenyl)thiazol-2-yl)cyclohexanecarboxylic acid] as the compound, how does the inhibition at 1 µM read?
Answer: 20 to 50%

Question: For `O=C(Nc1ccc(-c2cnc(C3CCC(C(=O)O)CC3)s2)cc1)c1ncc(-c2ccccc2)o1` (stereo not shown) [Example 198, 4-(5-(4-(5-Phenyloxazole-2-carboxamido)phenyl)thiazol-2-yl)cyclohexane carboxylic acid], which inhibition at 1 µM is on record?
Answer: > 50%
